What follows are compounds tested against T1, GST-Plk1 (Homo sapiens, UniProt P53350) (assay: Biochemical Characterization Assay: HTRF kinase assay, GST-Plk1 phosphorylation of GST-p53). Details: full-length active GST-Plk1, GST-p53 substrate, ATP, 37° C. for 35 minutes, HTRF signal.
T1 construct: Full-length, active GST-Plk1 was purified from Sf9 insect cells; made in house; host or cells: Sf9 insect cells
T1 sequence (P53350 whole entry): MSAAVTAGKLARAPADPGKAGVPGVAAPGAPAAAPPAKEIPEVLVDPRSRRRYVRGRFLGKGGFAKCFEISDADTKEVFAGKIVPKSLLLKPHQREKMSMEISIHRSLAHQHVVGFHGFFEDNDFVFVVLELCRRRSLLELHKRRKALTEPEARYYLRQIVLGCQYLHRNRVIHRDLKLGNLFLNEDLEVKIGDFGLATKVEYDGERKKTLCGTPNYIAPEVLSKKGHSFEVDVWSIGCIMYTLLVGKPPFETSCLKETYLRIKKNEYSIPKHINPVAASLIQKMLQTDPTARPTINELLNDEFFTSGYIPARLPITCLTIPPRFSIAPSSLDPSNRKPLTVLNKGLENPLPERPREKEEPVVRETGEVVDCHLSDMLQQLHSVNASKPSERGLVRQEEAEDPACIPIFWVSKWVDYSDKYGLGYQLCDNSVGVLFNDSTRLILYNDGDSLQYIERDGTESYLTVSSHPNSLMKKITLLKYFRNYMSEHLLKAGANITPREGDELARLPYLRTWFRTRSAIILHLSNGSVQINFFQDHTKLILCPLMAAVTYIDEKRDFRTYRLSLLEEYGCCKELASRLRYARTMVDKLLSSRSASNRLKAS
Description: Full-length, active GST-Plk1 was purified from Sf9 insect cells, and full-length GST-p53 was purified in E. coli. Anti-phospho p53 antibody was purchased from Cell Signaling Technology. Europium-conjugated anti-rabbit antibody was purchased from PerkinElmer Life and Analytical Sciences. APC-conjugated anti-GST antibody was purchased from Prozyme.
To two microliters of compound (0.6 nM-4 mM) in DMSO or plain DMSO for control wells, 38 microliters of 20 mM HEPES pH 7, 50 mM NaCl, 10 mM MgCl2, 0.5 mM TCEP, 0.1 mM sodium orthovanadate, 0.1 mg/ml BSA, and 0.05% Triton X-100 (Kinase Assay Buffer) were added. Eight microliters of the compound solution were added to a 384-well black microtiter plate, followed by six microliters of GST-p53 (17 ug/ml) and ATP (333 uM) in Kinase Assay Buffer. Six microliters of GST-Plk1 (3 ug/ml) in Kinase Assay Buffer were then added and the solution incubated at 37° C. for 35 minutes. Six microliters of solution containing 43 mM EDTA to stop the reaction and a 1:600 dilution of anti-phospho-p53 antibody in 20 mM HEPES pH 7, 50 mM NaCl, and 0.5 mg/ml BSA (Antibody Binding Buffer) were added and the solution incubated at 37° C. for 30 minutes. Six microliters of solution containing 9 nM europium-conjugated anti-rabbit antibody and 120 nM APC-conjugated anti-GST antibody in Antibody Binding Buffer were then added and the mixture incubated at room temperature for 1.5 hours. The HTRF signal was read on the Envision reader (PerkinElmer Life and Analytical Sciences).
In the case of `COc1cc2ncn(-c3nc(-c4cccc(Cl)c4)c(C(=O)O)s3)c2cc1OC` [Example 31, 4-(3-Chloro-phenyl)-2-(5,6-dimethoxy-benzoimidazol-1-yl)-thiazole-5-carboxylic acid], the IC50 is reported as 25 nM. For “2-(5-Chlorobenzoimidazol-1-yl)-4-phenylthiazole-5-carboxylic acid and 2-(6-chlorobenzoimidazol-1-yl)-4-phenylthiazole-5-carboxylic acid [Example 14]”, the IC50 was 720 nM. `COc1cc2ncn(-c3nc(-c4ccccc4)c(C(N)=O)s3)c2cc1OC` [Example 6, 2-(5,6-Dimethoxy-benzoimidazol-1-yl)-4-phenyl-thiazole-5-carboxylic acid amide] was tested, and the IC50 was 1380 nM. Work on `COc1cc2ncn(-c3nc(-c4ccccc4Cl)c(C(=O)O)s3)c2cc1OC` [Example 21, 4-(2-Chloro-phenyl)-2-(5,6-dimethoxy-benzoimidazol-1-yl)-thiazole-5-carboxylic acid] yielded an IC50 of 3600 nM. In the case of `COc1ccc2c(c1)ncn2-c1nc(-c2ccccc2)c(C(=O)O)s1` [Example 62, 2-(5-Methoxy-benzoimidazol-1-yl)-4-phe-nyl-thiazole-5-car-boxylic acid], the IC50 is reported as 261 nM. `COc1cc2ncn(-c3nc(-c4ccsc4)c(C(=O)O)s3)c2cc1OC` [Example 25, 2-(5,6-Dimethoxy-benzoimidazol-1-yl)-4-thiophen-3-yl-thiazole-5-carboxylic acid] was tested, and the IC50 was 781 nM. In the case of `COc1cc2ncn(-c3nc(-c4ccccc4)c(-c4nnn[nH]4)s3)c2cc1OC` [Example 12, 5,6-Dimethoxy-1-[4-phenyl-5-(1H-tetrazol-5-yl)-thiazol-2-yl]-1H-benzoimidazole], the IC50 is reported as 1100 nM. With `COc1cc2ncn(-c3nc(-c4ccccc4C)c(C(=O)O)s3)c2cc1OC` [Example 27, 2-(5,6-Dimethoxy-benzoimidazol-1-yl)-4-o-tolyl-thiazole-5-carboxylic acid] the IC50 was 1620 nM. Work on `COc1cc2ncn(-c3nc(-c4cccc(Cl)c4)c(C(=O)NNC(=O)c4cccc(C)c4)s3)c2cc1OC` [Example 58, 3-Methyl-benzoic acid N′-[4-(3-chloro-phenyl)-2-(5,6-dimethoxy-benzoimidazol-1-yl)-thiazole-5-carbonyl]-hydrazide] yielded an IC50 of 586 nM. “2-[5-(2-Methoxy-ethoxy)-benzo-imidazol-1-yl]-4-phenyl-thiazole-5-carboxylic acid;compound with 2-[6-(2-meth-oxy-ethoxy)-benzo-imidazol-1-yl]-4-phenyl-thiazole-5-carboxylic acid [Example 63]” showed an IC50 of 526 nM. `O=C(O)c1sc(-n2cnc3ccccc32)nc1-c1ccccc1` [Example 2, 2-(Benzoimidazol-1-yl)-4-phenylthiazole-5-carboxylic acid] was tested, and the IC50 was 772 nM. Work on `COc1cc2ncn(-c3nc(-c4cccc(C(F)(F)F)c4)c(C(=O)O)s3)c2cc1OC` [Example 43, 2-(5,6-Dimethoxy-benzoimidazol-1-yl)-4-(3-trifluoromethyl-phenyl)-thiazole-5-carboxylic acid] yielded an IC50 of 157 nM. `COc1cc2ncn(-c3nc(-c4ccccc4O)c(C(=O)O)s3)c2cc1OC` [Example 30, 2-(5,6-Dimethoxy-benzoimidazol-1-yl)-4-(2-hydroxy-phenyl)-thiazole-5-carboxylic acid] was tested, and the IC50 was 275 nM. In the case of `COc1cc2ncn(-c3nc(-c4ccc(F)c(F)c4)c(C(=O)O)s3)c2cc1OC` [Example 47, 4-(3,4-Difluoro-phenyl)-2-(5,6-dimethoxy-benzoimidazol-1-yl)-thiazole-5-carboxylic acid], the IC50 is reported as 542 nM. Work on `COc1cc2ncn(-c3nc(-c4ccc5c(c4)OCO5)c(C(=O)O)s3)c2cc1OC` [Example 22, 4-Benzo[1,3]dioxol-5-yl-2-(5,6-dimethoxy-benzoimidazol-1-yl)-thiazole-5-carboxylic acid] yielded an IC50 of 125 nM. Work on “2-(5-Hydroxy-benzoimidazol-1-yl)-4-phe-nyl-thiazole-5-car-boxylic acid; compoundwith 2-(6-hydroxy-benzoimidazol-1-yl)-4-phenyl-thiazole-5-carboxylic acid [Example 65]” yielded an IC50 of 388 nM. Compound `Cc1cc2ncn(-c3nc(-c4ccccc4)c(C(=O)O)s3)c2cc1C` [Example 5, 2-(5,6-Dimethylbenzoimidazol-1-yl)-4-phenylthiazole-5-carboxylic acid] has an IC50 of 2490 nM. In the case of `COc1cc2ncn(-c3nc(-c4ccc5c(ccn5C)c4)c(C(=O)O)s3)c2cc1OC` [Example 46, 2-(5,6-Dimethoxy-benzoimidazol-1-yl)-4-(1-methyl-1H-indol-5-yl)-thiazole-5-carboxylic acid], the IC50 is reported as 368 nM. Compound `COc1cc2ncn(-c3nc(-c4cccc(C(C)C)c4)c(C(=O)O)s3)c2cc1OC` [Example 24, 2-(5,6-Dimethoxy-benzoimidazol-1-yl)-4-(3-isopropyl-phenyl)-thiazole-5-carboxylic acid] has an IC50 of 68 nM. In the case of `COc1cc2ncn(-c3nc(-c4cccnc4)c(C(=O)O)s3)c2cc1OC` [Example 33, 2-(5,6-Dimethoxy-benzoimidazol-1-yl)-4-pyridin-3-yl-thiazole-5-carboxylic acid], the IC50 is reported as 4410 nM. Work on `COc1cc2ncn(-c3nc(-c4cccc(F)c4)c(C(=O)O)s3)c2cc1OC` [Example 17, 2-(5,6-Dimethoxy-benzoimidazol-1-yl)-4-(3-fluoro-phenyl)-thiazole-5-carboxylic acid] yielded an IC50 of 69 nM. Work on `COc1cccc(NC(=O)c2sc(-n3cnc4cc(OC)c(OC)cc43)nc2-c2cccc(Cl)c2)c1` [Example 55, 4-(3-Chloro-phenyl)-2-(5,6-dimethoxy-benzoimidazol-1-yl)-thiazole-5-carboxylic acid (3-methoxy-phenyl)-amide] yielded an IC50 of 250 nM. In the case of `COc1cc2ncn(-c3nc(-c4cccc(Br)c4)c(C(=O)O)s3)c2cc1OC` [Example 42, 4-(3-Bromo-phenyl)-2-(5,6-dimethoxy-benzoimidazol-1-yl)-thiazole-5-carboxylic acid], the IC50 is reported as 40 nM. `COc1cc2ncn(-c3nc(-c4cccc(Cl)c4)c(C(N)=O)s3)c2cc1OC` [Example 36, 4-(3-Chloro-phenyl)-2-(5,6-dimethoxy-benzoimidazol-1-yl)-thiazole-5-carboxylic acid amide] was tested, and the IC50 was 431 nM. For `COc1cc2ncn(-c3nc(-c4ccc(F)c(Cl)c4)c(C(=O)O)s3)c2cc1OC` [Example 19, 4-(3-Chloro-4-fluoro-phenyl)-2-(5,6-dimethoxy-benzoimidazol-1-yl)-thiazole-5-carboxylic acid], the IC50 was 87 nM. Work on `COc1cc2ncn(-c3nc(-c4cccc(C(=O)N(C)C)c4)c(C(=O)O)s3)c2cc1OC` [Example 52, 2-(5,6-Dimethoxy-benzoimidazol-1-yl)-4-(3-dimethylcarbamoyl-phenyl)-thiazole-5-carboxylic acid] yielded an IC50 of 8870 nM. For `COc1cc2ncn(-c3nc(-c4ccc(C(F)(F)F)c(Cl)c4)c(C(=O)O)s3)c2cc1OC` [Example 45, 4-(3-Chloro-4-trifluoromethyl-phenyl)-2-(5,6-dimethoxy-benzoimidazol-1-yl)-thiazole-5-carboxylic acid], the IC50 was 354 nM. Compound `COc1cc2ncn(-c3nc(-c4ccc(Cl)c(Cl)c4)c(C(=O)O)s3)c2cc1OC` [Example 23, 4-(3,4-Dichloro-phenyl)-2-(5,6-dimethoxy-benzoimidazol-1-yl)-thiazole-5-carboxylic acid] has an IC50 of 216 nM. In the case of `COc1cc2ncn(-c3nc(-c4cccc(Cl)c4)c(C(=O)Nc4cc[nH]c(=O)n4)s3)c2cc1OC` [Example 60, 4-(3-Chloro-phenyl)-2-(5,6-dimethoxy-benzoimidazol-1-yl)-thiazole-5-carboxylic acid (2-oxo-1,2-dihydro-pyrimidin-4-yl)-amide], the IC50 is reported as 4430 nM. For `NC(=O)c1sc(-n2cnc3ccccc32)nc1-c1ccccc1` [Example 3, 2-Benzoimidazol-1-yl-4-phenyl-thiazole-5-carboxylic acid amide], the IC50 was 7360 nM. For “2-(5-Methoxy-6-methylbenzoimidazol-1-yl)-4-phenylthiazole-5-carboxylic acid and 2-(6-methoxy-5-methylbenzoimidazol-1-yl)-4-phenylthiazole-5-carboxylic acid [Example 59]”, the IC50 was 826 nM. For `O=C(O)c1sc(-n2cnc3cccc(O)c32)nc1-c1ccccc1` [Example 61, 2-(7-Hydroxy-benzoimidazol-1-yl)-4-phenyl-thiazole-5-carboxylic acid], the IC50 was 4680 nM. Compound `CCNC(=O)c1sc(-n2cnc3cc(OC)c(OC)cc32)nc1-c1ccccc1` [Example 11, 2-(5,6-Dimethoxy-benzoimidazol-1-yl)-4-phenyl-thiazole-5-carboxylic acid ethylamide] has an IC50 of 916 nM. For `COc1cc2ncn(-c3nc(-c4cccc(Cl)c4)c(C(=O)Nc4nccs4)s3)c2cc1OC` [Example 56, 4-(3-Chloro-phenyl)-2-(5,6-dimethoxy-benzoimidazol-1-yl)-thiazole-5-carboxylic acid thiazol-2-ylamide], the IC50 was 252 nM. With `COc1cc2ncn(-c3nc(-c4ccc5c(c4)OCCO5)c(C(=O)O)s3)c2cc1OC` [Example 50, 4-(2,3-Dihydro-benzo[1,4]dioxin-6-yl)-2-(5,6-dimethoxy-benzoimidazol-1-yl)-thiazole-5-carboxylic acid] the IC50 was 2340 nM.

— US7504513B2, “Thiazolyl-benzimidazoles” (Hoffman-La Roche Inc., priority 2006, dated 2009)
